From PMC10021017 (Journal of the American Chemical Society, 2023)
Values belong to the molecule of their own block, whether it stands above or below them.

Assays:
HydB (ΔB2-HydABCTk) = HydB (ΔB2-HydABCTk) (Thermoanaerobacter kivui, UniProt A0A097ATG4, C82G/C86G)
[1] = molecular target: HydABC heterotrimer (protomer) of the electron-bifurcating [FeFe]-hydrogenase from Thermoanaerobacter kivui (Thermoanaerobacter kivui); test: cryo-EM structure
[2] = molecular target: T1, HydB (HydABCTk, electron-bifurcating [FeFe]-hydrogenase) (Thermoanaerobacter kivui, UniProt A0A097ATG4); test: cryoEM; type: binding
T1 sequence (A0A097ATG4 1-630): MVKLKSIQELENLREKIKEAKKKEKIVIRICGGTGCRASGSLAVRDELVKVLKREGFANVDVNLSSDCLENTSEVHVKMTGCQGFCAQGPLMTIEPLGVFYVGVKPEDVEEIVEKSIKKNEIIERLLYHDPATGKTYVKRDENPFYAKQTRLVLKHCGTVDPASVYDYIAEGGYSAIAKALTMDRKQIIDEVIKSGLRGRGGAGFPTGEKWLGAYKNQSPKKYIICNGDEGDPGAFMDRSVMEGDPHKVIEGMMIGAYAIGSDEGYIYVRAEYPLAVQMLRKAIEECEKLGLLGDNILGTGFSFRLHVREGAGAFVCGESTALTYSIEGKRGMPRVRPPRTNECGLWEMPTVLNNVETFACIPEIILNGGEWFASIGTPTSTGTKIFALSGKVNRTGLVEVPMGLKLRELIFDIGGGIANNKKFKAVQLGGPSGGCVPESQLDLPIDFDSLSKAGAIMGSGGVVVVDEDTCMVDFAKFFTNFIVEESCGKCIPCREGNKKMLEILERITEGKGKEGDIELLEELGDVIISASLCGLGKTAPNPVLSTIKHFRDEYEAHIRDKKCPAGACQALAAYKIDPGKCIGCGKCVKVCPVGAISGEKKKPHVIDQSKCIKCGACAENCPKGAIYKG
T1 sequence (A0A097ATG3 1-571 partner): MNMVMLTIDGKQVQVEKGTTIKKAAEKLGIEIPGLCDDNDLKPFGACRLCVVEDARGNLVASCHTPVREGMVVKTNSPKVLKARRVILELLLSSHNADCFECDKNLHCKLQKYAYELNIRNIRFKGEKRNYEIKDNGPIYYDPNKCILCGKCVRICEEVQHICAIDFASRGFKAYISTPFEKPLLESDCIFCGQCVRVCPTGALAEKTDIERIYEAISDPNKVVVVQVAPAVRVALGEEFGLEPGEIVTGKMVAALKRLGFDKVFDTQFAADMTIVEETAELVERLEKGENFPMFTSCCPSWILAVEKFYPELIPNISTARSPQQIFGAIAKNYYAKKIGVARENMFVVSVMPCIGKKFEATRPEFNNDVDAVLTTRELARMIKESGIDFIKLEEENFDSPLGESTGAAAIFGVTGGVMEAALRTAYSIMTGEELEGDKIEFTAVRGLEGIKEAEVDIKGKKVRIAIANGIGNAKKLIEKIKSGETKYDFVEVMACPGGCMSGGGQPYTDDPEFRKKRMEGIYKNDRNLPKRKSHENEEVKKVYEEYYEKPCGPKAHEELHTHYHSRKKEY
T1 sequence (A0A097ATI0 1-170 partner): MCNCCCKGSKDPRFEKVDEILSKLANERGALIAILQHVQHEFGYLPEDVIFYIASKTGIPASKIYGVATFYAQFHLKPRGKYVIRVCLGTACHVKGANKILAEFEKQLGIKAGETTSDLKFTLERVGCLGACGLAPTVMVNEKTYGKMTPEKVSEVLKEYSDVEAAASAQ

[3] = molecular target: T2, HydB subunit of the electron-bifurcating [FeFe]-hydrogenase HydABC from Thermoanaerobacter kivui (Thermoanaerobacter kivui, UniProt A0A097ATG4 1-630); test: cryo-EM structure
T2 sequence: T1 sequence (A0A097ATG4 1-630)

stoichiometry N [1]: 2
Molecule: HydABC heterotrimer (protomer) of the electron-bifurcating [FeFe]-hydrogenase from Thermoanaerobacter kivui (from UniProt A0A097ATG4 1-630; A0A097ATI0 1-170) (complex)

binding result [3]: binds
B1: HydC subunit of the electron-bifurcating [FeFe]-hydrogenase HydABC from Thermoanaerobacter kivui (natural protein)
chain: T1 sequence (A0A097ATI0 1-170 partner)

Continued, molecule first:

Molecule: NC(=O)c1ccc[n+]([C@@H]2O[C@H](COP(=O)(O)OP(=O)(O)OC[C@H]3O[C@@H](n4cnc5c(N)ncnc54)[C@H](OP(=O)(O)O)[C@@H]3O)[C@@H](O)[C@H]2O)c1 [NADP^+]
Kd (HydB (ΔB2-HydABCTk)): 65 to 71 µM

Molecule: Cc1cc2nc3c(=O)[nH]c(=O)nc-3n(C[C@H](O)[C@H](O)[C@H](O)COP(=O)(O)O)c2cc1C [FMN]
cryoEM (reduced 3.12 A; oxidized 3.49 A, 8BEW); TLC of bound flavin [2]: modified Rossmann fold with four (instead of six) β-sheets that noncovalently bind the FMN cofactor in a solvent-accessible cavity
